What is called Ki is the dissociation constant of the complex between target and ligand, obtained from inhibition or displacement.

Here are results for five compounds from article PMC6791321, “CD23 is a glycan-binding receptor in some mammalian species” (The Journal of Biological Chemistry, 2019).

Common to all, as to type: binding
Experiment [1] concerns the target T1, cow CD23 CRD (Bos taurus, UniProt E1BIQ4).
T1 construct: gene FCER2; untagged for crystals; C-terminal biotinylation tag LNDIFEAQKIEWHE for solid-phase assays
T1 sequence (E1BIQ4 169-302): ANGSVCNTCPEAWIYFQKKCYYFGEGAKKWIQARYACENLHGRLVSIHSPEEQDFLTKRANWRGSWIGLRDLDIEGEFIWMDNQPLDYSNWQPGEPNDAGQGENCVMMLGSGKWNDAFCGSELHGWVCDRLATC
The experiment in a line: solid-phase competition with horseradish peroxidase reporter, immobilized biotin-tagged CRD. To be noted: pH 7.8, 2.5 mM CaCl2, 150 mM NaCl, 4 °C; competitive.

Another experiment concerns the target T2, mouse CD23 CRD (Mus musculus, UniProt P20693).
T2 construct: gene Fcer2
T2 sequence (P20693 185-298 limits assumed): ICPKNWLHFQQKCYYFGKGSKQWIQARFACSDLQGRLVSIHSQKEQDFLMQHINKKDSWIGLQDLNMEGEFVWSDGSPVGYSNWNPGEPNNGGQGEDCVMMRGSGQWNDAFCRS
The description is as above. Particulars: pH 7.8, 2.5 mM CaCl2, 150 mM NaCl, 4 °C, competitive, KI approximates KD.

Experiment [2] concerns the target T1, cow CD23 CRD. The description is as above. Particulars: pH 7.8, 2.5 mM CaCl2, 150 mM NaCl, 4 °C, competitive, KI approximates KD. The text has this: solid-phase competition with horseradish peroxidase reporter, immobilized biotin-tagged CRD on cow CD23 CRD | The three monosaccharides with highest affinity are mannose, fucose, and GlcNAc
For experiment [3], the target named is T1, cow CD23 CRD. As to the kind of experiment: solid-phase competition with horseradish peroxidase reporter, immobilized biotin-tagged CRD; also crystal structure at […] Å (untagged CRD).
The mark [4] stands for this setting: may have been tested as methyl glycoside.

Turning to `CC(=O)N[C@H]1[C@H](O[C@H]2[C@H](O)[C@@H](NC(C)=O)C(O)O[C@@H]2CO)O[C@H](CO)[C@@H](O[C@@H]2O[C@H](CO[C@H]3O[C@H](CO[C@H]4O[C@H](CO)[C@@H](O)[C@H](O)[C@@H]4O[C@H]4O[C@H](CO)[C@@H](O)[C@H](O)[C@@H]4O)[C@@H](O)[C@H](O[C@H]4O[C@H](CO)[C@@H](O)[C@H](O)[C@@H]4O[C@H]4O[C@H](CO)[C@@H](O)[C@H](O)[C@@H]4O)[C@@H]3O)[C@@H](O)[C@H](O[C@H]3O[C@H](CO)[C@@H](O)[C@H](O)[C@@H]3O[C@H]3O[C@H](CO)[C@@H](O)[C@H](O)[C@@H]3O[C@H]3O[C@H](CO)[C@@H](O)[C@H](O)[C@@H]3O)[C@@H]2O)[C@@H]1O` (some centres unmarked) [Man9GlcNAc2], the “ratio of affinities relative to α-methyl mannoside” value at cow CD23 CRD [1] is on record as 240 ± 50 fold.
Turning to `OC[C@H]1OC(O)[C@@H](O)[C@@H](O)[C@@H]1O` (some centres unmarked) [mannose], the figures for the Ki at mouse CD23 CRD and at cow CD23 CRD [2] were 5700 µM and 1600 µM, respectively.
Take `C[C@@H]1OC(O)[C@@H](O)[C@H](O)[C@@H]1O` (some centres unmarked) [fucose]: the Ki on mouse CD23 CRD (setting [4]) was found to be 8400 µM; on cow CD23 CRD [2] (setting [4]) it was 1800 µM.
For the compound `CC(=O)N[C@H]1C(O)O[C@H](CO)[C@@H](O)[C@@H]1O` (some centres unmarked) [GlcNAc], the Ki at mouse CD23 CRD was 5200 µM; on cow CD23 CRD [2] it was 1100 µM.
The compound `CO[C@H]1O[C@H](CO)[C@@H](O)[C@H](O)[C@@H]1O` [α-methyl mannoside] yielded a Ki on cow CD23 CRD [3] of 1600 µM.
